Source: ChEMBL document CHEMBL4364294 (J Med Chem, 2019)
≈ marks a conversion by molar mass, not a printed value.

Key:
[1] = Intrinsic clearance in human liver microsomes; type: ADME, Microsome; settings: read-out: CLH
[2] = Aqueous solubility of the compound at pH 7.4; type: physicochemical
[3] = Aqueous solubility of the compound at pH 1; type: physicochemical
[4] = Aqueous solubility of the compound at pH 6.5; type: physicochemical

SMILES: O=C1CCC(C(O)CC2c3c(F)cccc3-c3cncn32)CC1 (stereo unspecified)
- predicted hepatic clearance [1]: 20.3 mL/min/kg

SMILES: O=C(N[C@H]1CC[C@@H](C(O)CC2c3ccccc3-c3cncn32)CC1)c1ccccc1 (stereo partly specified)
- predicted hepatic clearance [1]: 8.23 mL/min/kg
- solubility [2]: 56 µM (≈ 22.5 µg/mL)
- solubility [3]: 400 µM (≈ 161 µg/mL)
- solubility [4]: 65 µM (≈ 26.1 µg/mL)

SMILES: OC(CC1c2ccccc2-c2cncn21)C1CCCCC1 (stereo unspecified)
- predicted hepatic clearance [1]: 18 mL/min/kg
